Experimental data from patent publication US10829481B2, “Benzimidazole derivatives as modulators of ROR-gamma” (Vitae Pharmaceuticals, LLC, priority 2016, dated 2020).

target: recombinant RORγ Ligand Binding Domain (LBD) protein (Homo sapiens (Human), UniProt P51449); assay: Radio-Ligand RORγ Binding Assay (Assay 1); settings: competition with 25-hydroxy [26,27-3H]-cholesterol, SPA
Protocol: Radio-Ligand RORγ Binding Assay (Assay 1)
Compounds described herein were tested for ability to bind to RORγ in a cell-free competition assay with commercially available radio-ligand (RL), 25-hydroxy [26,27-^3H]-cholesterol (PerkinElmer, Cat. #NET674250UC), for a ligand binding site on a recombinant RORγ Ligand Binding Domain (LBD) protein expressed as a 6×His-Glutathione-S-Transferase (GST) fusion. The assay was performed in 96-well SPA plates (PerkinElmer, Cat. #1450-401) in 50 mM HEPES buffer, pH 7.4, containing 150 mM NaCl, 5 mM MgCl2, 10% (v/v) glycerol, 2 mM CHAPS, 0.5 mM β-octylglucopyranoside and 5 mM DTT. Tested compounds were dissolved in DMSO, and semi-log (3.162×) serial dilutions of the compounds were prepared in the same solvent. Two μL of the DMSO solutions were mixed with 28 μL of 8.6 nM 25-hydroxy [26,27-^3H]-cholesterol and 50 μL of 24 nM RORγ LBD. The plate was shaken at 700 rpm for 20 min and incubated for 10 min at rt, after which 40 μL of poly-Lys YSi SPA beads (PerkinElmer, Cat. #RPNQ0010) were added to achieve […] of the beads per well. The plate was incubated on an orbital shaker for 20 min and then for 10 min without agitation at rt. SPA signal for tritium beta radiation was registered on PerkinElmer Microbeta plate reader. […] The percent inhibition vs. concentration data were fit into a four-parameter model, and IC50 values were calculated from the fit as the concentrations corresponding to the inflection points on the dose-response curves. Inhibitory constants (Ki) were calculated using the following equation, where [RL] is the concentration in the assay and KD is a dissociation constant of 25-hydroxy [26,27-^3H]-cholesterol: […]

recombinant RORγ Ligand Binding Domain (LBD) protein, sequence (P51449 269-508): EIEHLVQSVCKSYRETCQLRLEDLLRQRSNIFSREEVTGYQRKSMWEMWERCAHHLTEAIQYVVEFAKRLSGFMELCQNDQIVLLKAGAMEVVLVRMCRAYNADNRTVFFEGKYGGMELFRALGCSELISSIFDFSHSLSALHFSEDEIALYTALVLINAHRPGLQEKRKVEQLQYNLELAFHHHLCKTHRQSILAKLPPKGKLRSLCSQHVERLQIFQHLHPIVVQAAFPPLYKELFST

How did the Ki turn out when “1-((2,2-difluorobenzo[d][1,3]dioxol-4-yl)methyl)-2-(difluoromethyl)-N-(4-((2-hydroxyethyl)sulfonyl)benzyl)-1H-benzo[d]imidazole-5-carboxamide [I-44]” was run?
Its Ki is < 100 nM.

“1-((2,2-difluorobenzo[d][1,3]dioxol-4-yl)methyl)-N-((R)-1-(4-(ethylsulfonyl)phenyl)-2-hydroxyethyl)-2-((R)-tetrahydrofuran-2-yl)-1H-benzo[d]imidazole-5-carboxamide [I-15]” was tested. Which Ki did it give?
The Ki was < 100 nM.

With “2-cyclopropyl-N-(4-(ethylsulfonyl)benzyl)-1-((6-oxo-1-(2,2,2-trifluoroethyl)-1,6-dihydropyridin-3-yl)methyl)-1H-benzo[d]imidazole-5-carboxamide [I-117]” as the compound, how does the Ki read?
The Ki was > 1000 nM.

How did the Ki turn out when `CCOC(=O)Cc1ccc(CC(=O)Nc2ccc3c(c2)nc(C(F)(F)F)n3Cc2cccc3c2OC(F)(F)O3)cc1` [I-7, ethyl 2-(4-(2-((1-((2,2-difluorobenzo[d][1,3]dioxol-4-yl)methyl)-2-(trifluoromethyl)-1H-benzo[d]imidazol-5-yl)amino)-2-oxoethyl)phenyl)acetate] was run?
The Ki was 100 to 1000 nM.

Which Ki does the source give for `CCS(=O)(=O)c1ccc(CNC(=O)c2ccc3c(c2)nc([C@H]2C[C@H]2C#N)n3Cc2cccc3c2OC(F)(F)O3)cc1` [I-56, 2-((1S,2R)-2-cyanocyclopropyl)-1-((2,2-difluorobenzo[d][1,3]dioxol-4-yl)methyl)-N-(4-(ethylsulfonyl)benzyl)-1H-benzo[d]imidazole-5-carboxamide] here?
Its Ki is 100 to 1000 nM.

`CCS(=O)(=O)c1ccc(CNC(=O)c2ccc3c(c2)nc(C(F)(F)F)n3Cc2nnc3n2CCC3)cc1` [I-86, 1-((6,7-dihydro-5H-pyrrolo[2,1-c][1,2,4]triazol-3-yl)methyl)-N-(4-(ethylsulfonyl)benzyl)-2-(trifluoromethyl)-1H-benzo[d]imidazole-5-carboxamide] was tested. Which Ki did it give?
The Ki was > 1000 nM.

How did the Ki turn out when `CCS(=O)(=O)c1ccc(CNC(=O)c2ccc3c(c2)nc(C2CC2)n3C[C@H]2CCN(C(=O)OC(C)(C)C)C2)cc1` [I-107, tert-butyl (R)-3-((2-cyclopropyl-5-((4-(ethylsulfonyl)benzyl)carbamoyl)-1H-benzo[d]imidazol-1-yl)methyl)pyrrolidine-1-carboxylate] was run?
The Ki was > 1000 nM.

With `CCS(=O)(=O)c1ccc(CNC(=O)c2ccc3c(c2)nc(C2CC2)n3C[C@H]2CCCN2C(=O)OC(C)(C)C)cc1` [I-108, tert-butyl (R)-2-((2-cyclopropyl-5-((4-(ethylsulfonyl)benzyl)carbamoyl)-1H-benzo[d]imidazol-1-yl)methyl)pyrrolidine-1-carboxylate] as the compound, how does the Ki read?
Its Ki is > 1000 nM.

For `CCS(=O)(=O)c1ccc(CNC(=O)c2ccc3c(c2)nc(C2CC2)n3Cc2cnn(CC(F)(F)F)c2)cc1` [I-111, 2-cyclopropyl-N-(4-(ethylsulfonyl)benzyl)-1-((1-(2,2,2-trifluoroethyl)-1H-pyrazol-4-yl)methyl)-1H-benzo[d]imidazole-5-carboxamide], which Ki is on record?
Its Ki is > 1000 nM.

`CCS(=O)(=O)c1ccc(CNC(=O)c2ccc3c(c2)nc(C2CC2)n3Cc2cccc(C#N)c2)cc1` [I-112, 1-(3-cyanobenzyl)-2-cyclopropyl-N-(4-(ethylsulfonyl)benzyl)-1H-benzo[d]imidazole-5-carboxamide] was tested. Which Ki did it give?
The Ki was 100 to 1000 nM.

For `CCS(=O)(=O)c1ccc(CNC(=O)c2ccc3c(c2)nc(C2CC2)n3Cc2ccn(CC(F)(F)F)n2)cc1` [I-114, 2-cyclopropyl-N-(4-(ethylsulfonyl)benzyl)-1-((1-(2,2,2-trifluoroethyl)-1H-pyrazol-3-yl)methyl)-1H-benzo[d]imidazole-5-carboxamide], which Ki is on record?
Its Ki is > 1000 nM.

With `CCS(=O)(=O)c1ccc([C@@H](CO)NC(=O)c2ccc3c(c2)nc(C2CC2)n3Cc2cccc3c2OC(F)(F)O3)nc1` [I-133.2, (S)-2-cyclopropyl-1-((2,2-difluorobenzo[d][1,3]dioxol-4-yl)methyl)-N-(1-(5-(ethylsulfonyl)pyridin-2-yl)-2-hydroxyethyl)-1H-benzo[d]imidazole-5-carboxamide] as the compound, how does the Ki read?
Its Ki is 100 to 1000 nM.

With `CS(=O)(=O)c1ccc([C@H](CO)NC(=O)c2ccc3c(c2)nc(C(F)(F)F)n3Cc2cccc3c2OC(F)(F)O3)nc1` [I-135, (R)-1-((2,2-difluorobenzo[d][1,3]dioxol-4-yl)methyl)-N-(2-hydroxy-1-(5-(methylsulfonyl)pyridin-2-yl)ethyl)-2-(trifluoromethyl)-1H-benzo[d]imidazole-5-carboxamide] as the compound, how does the Ki read?
Its Ki is 100 to 1000 nM.

For `CCS(=O)(=O)c1ccc(CNC(=O)c2ccc3c(c2)nc(C(F)(F)F)n3CC2CCN(C(=O)OC(C)(C)C)CC2)cc1` [I-145, tert-butyl 4-((5-((4-(ethylsulfonyl)benzyl)carbamoyl)-2-(trifluoromethyl)-1H-benzo[d]imidazol-1-yl)methyl)piperidine-1-carboxylate], which Ki is on record?
Its Ki is 100 to 1000 nM.

`CCS(=O)(=O)c1ccc(CNC(=O)c2ccc3c(c2)nc(C(F)(F)F)n3Cc2cccn(C)c2=O)cc1` [I-146, N-(4-(ethylsulfonyl)benzyl)-1-((1-methyl-2-oxo-1,2-dihydropyridin-3-yl)methyl)-2-(trifluoromethyl)-1H-benzo[d]imidazole-5-carboxamide] was tested. Which Ki did it give?
The Ki was 100 to 1000 nM.

For `CCS(=O)(=O)c1ccc(CNC(=O)c2ccc3c(c2)nc(C2CC2)n3C[C@H]2CCN(CC(F)(F)F)C2)cc1` [I-156, (S)-2-cyclopropyl-N-(4-(ethylsulfonyl)benzyl)-1-((1-(2,2,2-trifluoroethyl)pyrrolidin-3-yl)methyl)-1H-benzo[d]imidazole-5-carboxamide], which Ki is on record?
The Ki was > 1000 nM.

Which Ki does the source give for `CCS(=O)(=O)c1ccc(CNC(=O)c2ccc3c(c2)nc(C2CC2)n3C[C@H]2CCCN2CC(F)(F)F)cc1` [I-157, (R)-2-cyclopropyl-N-(4-(ethylsulfonyl)benzyl)-1-((1-(2,2,2-trifluoroethyl)pyrrolidin-2-yl)methyl)-1H-benzo[d]imidazole-5-carboxamide] here?
The Ki was > 1000 nM.

For `CCS(=O)(=O)c1ccc(CNC(=O)c2ccc3c(c2)nc(C2CC2)n3C[C@H]2CCN(c3ncc(F)cn3)C2)cc1` [I-159, (R)-2-cyclopropyl-N-(4-(ethylsulfonyl)benzyl)-1-((1-(5-fluoropyrimidin-2-yl)pyrrolidin-3-yl)methyl)-1H-benzo[d]imidazole-5-carboxamide], which Ki is on record?
The Ki was > 1000 nM.

Which Ki does the source give for `CN1CCN(S(C)(=O)=O)CCC1CNC(=O)c1ccc2c(c1)nc(C(F)(F)F)n2Cc1cccc2c1OC(F)(F)O2` (stereo not shown) [I-171, 1-((2,2-difluorobenzo[d][1,3]dioxol-4-yl)methyl)-N-((4-methyl-1-(methylsulfonyl)-1,4-diazepan-5-yl)methyl)-2-(trifluoromethyl)-1H-benzo[d]imidazole-5-carboxamide] here?
The Ki was 100 to 1000 nM.

Which Ki does the source give for `CCS(=O)(=O)c1ccc(C(CO)(CO)NC(=O)c2ccc3c(c2)nc(C(F)(F)F)n3Cc2cccc3c2OC(F)(F)O3)cc1` [I-174, 1-((2,2-difluorobenzo[d][1,3]dioxol-4-yl)methyl)-N-(2-(4-(ethylsulfonyl)phenyl)-1,3-dihydroxypropan-2-yl)-2-(trifluoromethyl)-1H-benzo[d]imidazole-5-carboxamide] here?
The Ki was < 100 nM.

target: full-length RORγt in Jurkat cells (Homo sapiens (Human), UniProt P51449); assay: RORγt 5×RORE Assay in Jurkat Cells (Assay 2); assay type: cell-based; settings: 5×RORE Nanoluc luciferase reporter
Protocol: RORγt 5×RORE Assay in Jurkat Cells (Assay 2)
Compounds described herein were tested for RORγ inverse agonist activity in a cell-based, transcriptional activity assay. Secreted Nanoluc® luciferase was used as a reporter for transcriptional activity of the full-length RORγt in Jurkat cells (ATCC, Cat. #TIB-152). […] (Promega, Cat. #N1021) using KpnI and HindIII restriction sites. […] After 5-6 hrs of incubation at 37° C./5% CO2, the cells were collected, resuspended in phenol-red free RPMI media containing 10% (v/v) delipidated FBS (Hyclone, Cat. #SH30855.03) and dispensed into 96-well clear bottom tissue culture plates (CoStar, Cat. #3603), at 80,000 cells per well. Tested compounds were added to the cells in the same media (final concentration of DMSO was 0.1% (v/v)), and the plates were incubated at 37° C./5% CO2 for 16-18 hrs. Luciferase activity in the conditioned supernatants was determined with NanoGlo® assay reagents (Promega, Cat. #N1130).

full-length RORγt in Jurkat cells, sequence (P51449 other isoform, or with tags, fused parts or gaps): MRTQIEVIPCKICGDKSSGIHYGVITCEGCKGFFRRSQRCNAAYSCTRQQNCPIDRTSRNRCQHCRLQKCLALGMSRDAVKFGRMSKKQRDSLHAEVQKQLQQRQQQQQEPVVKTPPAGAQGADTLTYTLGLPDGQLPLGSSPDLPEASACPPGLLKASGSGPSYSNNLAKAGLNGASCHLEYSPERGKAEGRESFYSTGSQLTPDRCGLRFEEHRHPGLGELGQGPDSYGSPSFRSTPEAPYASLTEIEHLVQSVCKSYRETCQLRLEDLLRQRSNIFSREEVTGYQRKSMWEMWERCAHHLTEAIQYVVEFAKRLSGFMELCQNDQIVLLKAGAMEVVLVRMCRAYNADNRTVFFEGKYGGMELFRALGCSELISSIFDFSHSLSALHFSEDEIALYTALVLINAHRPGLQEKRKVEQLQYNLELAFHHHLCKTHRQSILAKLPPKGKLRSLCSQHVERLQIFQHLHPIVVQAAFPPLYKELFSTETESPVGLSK

For “1-((2,2-difluorobenzo[d][1,3]dioxol-4-yl)methyl)-2-(difluoromethyl)-N-(4-((2-hydroxyethyl)sulfonyl)benzyl)-1H-benzo[d]imidazole-5-carboxamide [I-44]”, which IC50 is on record?
The IC50 was < 100 nM.

With “1-((2,2-difluorobenzo[d][1,3]dioxol-4-yl)methyl)-N-((R)-1-(4-(ethylsulfonyl)phenyl)-2-hydroxyethyl)-2-((R)-tetrahydrofuran-2-yl)-1H-benzo[d]imidazole-5-carboxamide [I-15]” as the compound, how does the IC50 read?
The IC50 was < 100 nM.

With `CCS(=O)(=O)c1ccc([C@H](CO)NC(=O)c2ccc3c(c2)nc(C2CC2)n3Cc2cccc3c2OC(F)(F)O3)cc1` [I-12, (R)-2-cyclopropyl-1-((2,2-difluorobenzo[d][1,3]dioxol-4-yl)methyl)-N-(1-(4-(ethylsulfonyl)phenyl)-2-hydroxyethyl)-1H-benzo[d]imidazole-5-carboxamide] as the compound, how does the IC50 read?
Its IC50 is < 100 nM.

Which IC50 does the source give for `CCS(=O)(=O)c1ccc([C@H](CO)NC(=O)c2ccc3c(c2)nc(C2(F)CCC2)n3Cc2cccc3c2OC(F)(F)O3)cc1` [I-19, (R)-1-((2,2-difluorobenzo[d][1,3]dioxol-4-yl)methyl)-N-(1-(4-(ethylsulfonyl)phenyl)-2-hydroxyethyl)-2-(1-fluorocyclobutyl)-1H-benzo[d]imidazole-5-carboxamide] here?
The IC50 was < 100 nM.

`CCS(=O)(=O)c1ccc(CNC(=O)c2ccc3c(c2)nc(C(F)(F)F)n3Cc2cccc3c2OC(F)(F)O3)[n+]([O-])c1` [I-161, 2-((1-((2,2-difluorobenzo[d][1,3]dioxol-4-yl)methyl)-2-(trifluoromethyl)-1H-benzo[d]imidazole-5-carboxamido)methyl)-5-(ethylsulfonyl)pyridine 1-oxide] was tested. Which IC50 did it give?
The IC50 was < 100 nM.
